Reference: publication PMC6769468, “Endogenous Neuropeptide Nocistatin Is a Direct Agonist of Acid-Sensing Ion Channels (ASIC1, ASIC2 and ASIC3)” (Biomolecules, 2019)
Ends that are not written are not given here.

Experiments:
rat ASIC1b = molecular target: T1, rat ASIC1b (Rattus norvegicus, UniProt P55926); assay: Whole-cell current activation, rat ASIC1b in X. laevis oocytes; format: cell-based
T1 construct: expressed in transfected cells; host or cells: Xenopus laevis oocytes (injected)
T1 sequence (P55926 1-559 isoform P55926-3): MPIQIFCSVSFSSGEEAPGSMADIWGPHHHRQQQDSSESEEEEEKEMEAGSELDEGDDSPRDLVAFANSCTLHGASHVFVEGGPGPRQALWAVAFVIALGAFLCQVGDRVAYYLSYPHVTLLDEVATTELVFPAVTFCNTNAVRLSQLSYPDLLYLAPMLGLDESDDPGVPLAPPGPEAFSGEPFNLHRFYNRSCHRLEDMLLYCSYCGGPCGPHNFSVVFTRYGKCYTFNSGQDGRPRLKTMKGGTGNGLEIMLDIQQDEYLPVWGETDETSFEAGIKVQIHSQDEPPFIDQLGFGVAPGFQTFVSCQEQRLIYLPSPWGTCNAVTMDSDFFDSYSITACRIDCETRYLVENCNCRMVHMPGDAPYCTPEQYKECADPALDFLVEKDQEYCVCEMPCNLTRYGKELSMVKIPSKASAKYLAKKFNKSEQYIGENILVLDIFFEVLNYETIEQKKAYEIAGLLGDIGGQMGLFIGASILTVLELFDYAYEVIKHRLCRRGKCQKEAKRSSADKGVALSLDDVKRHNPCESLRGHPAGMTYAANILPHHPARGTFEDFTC
Procedure: (§1) Oocytes expressed rASIC1a, rASIC1b, rASIC2a, and rASIC3 homomeric channels were prepared as described. Injected oocytes were kept for two–three days at 19 °C and then for up to seven days at 15 °C in ND-96 medium supplemented with gentamycin (50 μg·mL^−1) and containing (in mM): 96 NaCl, 2 KCl, 1.8 CaCl2, 1 MgCl2, and 10 HEPES titrated to pH 7.4 with NaOH. Electrophysiological recordings were performed using the GeneClamp500 amplifier (Axon Instruments, Inverurie, UK) at a holding potential of -50 mV. The data were filtered at 20 Hz and digitized at 100 Hz using the L780 AD converter (L-Card, Moscow, Russia). Microelectrodes were filled with 3 M KCl. The external bath solution was ND-96 with pH adjusted to 7.4/7.8 (10 mM HEPES) /8.5 (10 mM Tris). Nocistatin containing solutions were freshly prepared and buffered each experimental day in ND-96 bath solution (pH 7.4/7.8/8.5). Proton-activated currents through ASIC channels were elicited by application of ND-96, in which 10 mM of HEPES was substituted with 10 mM MES at pH 5.5/ 10 mM acetic acid at pH 4.5. The whole-cell recording was performed if a response to the control pH stimulus was stable in at least two replicates. Nocistatin-activated currents were elicited by application of nocistatin containing solutions with various concentrations of the peptide.
Extracellular solutions were applied using a computer-controlled valve system with a flow rate of 1 mL/min. The oocyte chamber volume was 80 µL. The validity of the application system for studying ASIC channels expressed in oocytes was confirmed in experiments by application of a Cl-free solution (containing (in mM): 130 NMDG, 1 MgGluc2, 2 KGluc, 5 HEPES) (pH 7.4). Fast application of proton/peptide-activating solution was performed at a flow rate of 1 mL/sec (the change of the bath solution occurred within 100 ms), followed by PC controlled flow stopping (from 5 to 15 s).
(d) The time course of curves’ decay was fitted using a mono-exponential equation: F4(x) = A1*e^(-x/τdes) + A0, where F4(x) is the current amplitude at the time point x, A1 is the maximal current amplitude, A0 is its steady-state value and τdes is the […].
(§2) All data are presented as mean ± SEM. The significance of normalized data differences was determined with a non-parametric Kruskal-Wallis ANOVA test with the significance level * p < 0.05 and ** p < 0.01; ns, non-significant.

rat ASIC2a = molecular target: T2, rat ASIC2a (Rattus norvegicus, UniProt Q62962); assay: Whole-cell current activation, rat ASIC2a in X. laevis oocytes; format: cell-based
T2 construct: expressed in transfected cells; host or cells: Xenopus laevis oocytes (injected)
T2 sequence (Q62962 1-512): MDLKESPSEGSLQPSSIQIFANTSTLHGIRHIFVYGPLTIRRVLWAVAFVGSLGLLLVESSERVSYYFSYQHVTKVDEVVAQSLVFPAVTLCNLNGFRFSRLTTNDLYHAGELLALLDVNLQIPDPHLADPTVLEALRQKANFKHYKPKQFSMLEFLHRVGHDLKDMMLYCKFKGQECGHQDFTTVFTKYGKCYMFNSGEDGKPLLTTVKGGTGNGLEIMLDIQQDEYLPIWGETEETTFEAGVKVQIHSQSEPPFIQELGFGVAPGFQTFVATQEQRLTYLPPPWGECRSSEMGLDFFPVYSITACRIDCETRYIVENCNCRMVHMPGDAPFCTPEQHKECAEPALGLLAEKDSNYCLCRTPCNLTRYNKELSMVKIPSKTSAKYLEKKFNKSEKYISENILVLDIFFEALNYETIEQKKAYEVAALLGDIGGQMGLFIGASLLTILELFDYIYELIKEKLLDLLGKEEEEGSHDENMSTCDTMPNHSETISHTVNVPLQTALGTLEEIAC
Procedure: as §1
Extracellular solutions were applied using a computer-controlled valve system with a flow rate of 1 mL/min. The oocyte chamber volume was 80 µL. The validity of the application system for studying ASIC channels expressed in oocytes was confirmed in experiments by application of a Cl-free solution (containing (in mM): 130 NMDG, 1 MgGluc2, 2 KGluc, 5 HEPES) (pH 7.4). […]
as §2

uninjected oocytes = assay: Application to uninjected oocytes (negative control); format: cell-based, Xenopus laevis; conditions: 1 mM rNS
Procedure: as §1, with “peptide. […]” for “peptide.”

[1] = ref [27]; cited from earlier work
Text: (§3) The nocistatin in mammalian is expressed as a precursor protein coding three neuropeptides (nocistatin, nociceptin, and Orphanin FQ2). […] Nocistatin is well represented in different parts of the brain and spinal cord. […] Nocistatin was studied in animal models as a prospective molecule together with opi ...

NIPSNAP1 = conditions: ref [32]; cited from earlier work
Text: as §3

[2] = test system: canonical transient receptor potential cation (TRPC) channels; conditions: via unidentified G-coupled receptor(s), Gαq/11-phospholipase C-protein kinase C pathway; ref [31]; cited from earlier work
Text: as §3

mice = conditions: ref [28]; cited from earlier work
Text: as §3

mouse = conditions: cited from earlier work
Text: as §3

[3] = 1 mM rNS, conditioning pH 7.4, mean ± S.E. from 4–7 measurements

Question: Which “Acurrent, nocistatin versus protons” value (rat ASIC1b; 1 mM rNS vs pH drop 7.4–5.5) does the source give for “MPRVRSVVQARDAEPEADAEPVADEADEVEQKQLQ [rNS]” here?
Answer: Its value is “did not differ between protons and nocistatin”.

Question: What about the “Desensitization time, difference between stimuli” value (rat ASIC1b; 1 mM rNS vs pH drop 7.4–5.5) of the same sequence?
Answer: The value was “No differences were observed in desensitization time”.

Question: What about the “tmax, nocistatin versus protons” value (rat ASIC1b; 1 mM rNS vs pH drop 7.4–5.5) of the same sequence?
Answer: Its value is “no differences”.

Question: What about the “τdes (desensitization time constant)” value (rat ASIC1b; [3]) of the same sequence?
Answer: Its value is 0.5 ± 0.06 s.

Question: What about the “tmax less than for acidification by” value (rat ASIC2a; 1 mM rNS vs acidification, faster) of the same sequence?
Answer: The value was ~ 37%.

Question: And the “Maximal amplitude of peptide activation versus response to standard pH drop” value (rat ASIC2a; 1 mM rNS vs pH drop 7.4 to 5.5)?
Answer: The value was “eight times higher”.

Question: What about the “τdes (desensitization time constant)” value (rat ASIC2a; [3]) of the same sequence?
Answer: Its value is 2.22 ± 0.16 s.

Question: What about the “Effect on uninjected oocytes” value (uninjected oocytes) of the same sequence?
Answer: Its value is “did not produce any effects on the uninjected oocytes”.

Question: And the “Effect on scopolamine-induced impairment of learning and memory” value [1]?
Answer: Its value is “prevented the disruption of learning and memory processes”.

Question: And the “Binding to NIPSNAP1” value (NIPSNAP1)?
Answer: Its value is “nocistatin binding proteins”.

Question: What about the “Effect on TRPC channels” value [2] of the same sequence?
Answer: Its value is “opening of canonical transient receptor potential cation (TRPC) channels”.

Question: What about the “Effect in elevated plus-maze test” value (mice) of the same sequence?
Answer: The value was “produced anxiogenic-like actions”.

Question: What about the “Effect on nociceptin-caused allodynia and thermal hyperalgesia” value (mouse; doses of 0.5–500 pg per mouse, ref [29]) of the same sequence?
Answer: The value was “eliminated allodynia and thermal hyperalgesia effects”.

Question: What about the “Effect in algogenic-induced nociceptive flexion test” value (mouse; i.pl. 0.01–1 pmol per mouse, ref [30]) of the same sequence?
Answer: The value was “induced pronociceptive responses”.
